Data as given in PubChem BioAssay AID248 (DTP/NCI, 2004).
Values joined by “and” are separate entries in the source; they are usually repeats but may differ in a detail not shown here. Equal values may be shown once. Inconclusive results and toxic doses are left out. Cut-off read from the data, not from the text of the source: active = T/C of 150% or more; inactive = T/C below 125%.

Tested on: L1210 leukemia ip in BDF1 mice, survival T/C
Experiment: NCI In Vivo Anticancer Drug Screen. Data for tumor model L1210 Leukemia (intraperitoneal) in B6D2F1 (BDF1) mice
Conditions: endpoint: mean survival time, higher = longer survival
Procedure: The antitumor activity of compounds was measured in mice bearing transplantable tumors. Survival or tumor size were measured and the results are expressed as the measurement made in the treated group (T) divided by the measurement made in the vehicle treated control group (C). The tumor model used in this assay is L1210 Leukemia (intraperitoneal) in B6D2F1 (BDF1) mice

[1] = dose: 12.5 mg/kg/injection, schedule: Q01DX009 (ip), vehicle: Klucel (hydroxypropylcellulose) (HPC)
[2] = dose: 25.0 mg/kg/injection, schedule: Q01DX009 (ip), vehicle: Klucel (hydroxypropylcellulose) (HPC)
[3] = dose: 25.0 mg/kg/injection, schedule: Q04DX003 (ip), vehicle: Klucel (hydroxypropylcellulose) (HPC)
[4] = dose: 50.0 mg/kg/injection, schedule: Q01DX009 (ip), vehicle: Klucel (hydroxypropylcellulose) (HPC)
[5] = dose: 50.0 mg/kg/injection, schedule: Q04DX003 (ip), vehicle: Klucel (hydroxypropylcellulose) (HPC)
[6] = dose: 100.0 mg/kg/injection, schedule: Q04DX003 (ip), vehicle: saline with Tween-80
[7] = dose: 200.0 mg/kg/injection, schedule: Q04DX003 (ip), vehicle: saline with Tween-80
[8] = dose: 400.0 mg/kg/injection, schedule: Q04DX003 (ip), vehicle: saline with Tween-80
[9] = dose: 100.0 mg/kg/injection, schedule: Q01DX009 (ip), vehicle: Klucel (hydroxypropylcellulose) (HPC)
[10] = dose: 200.0 mg/kg/injection, schedule: Q01DX009 (ip), vehicle: Klucel (hydroxypropylcellulose) (HPC)
[11] = dose: 400.0 mg/kg/injection, schedule: Q01DX009 (ip), vehicle: Klucel (hydroxypropylcellulose) (HPC)
[12] = dose: 100.0 mg/kg/injection, schedule: Q01DX001 (ip), vehicle: saline
[13] = dose: 200.0 mg/kg/injection, schedule: Q01DX001 (ip), vehicle: saline
[14] = dose: 400.0 mg/kg/injection, schedule: Q01DX001 (ip), vehicle: saline
[15] = dose: 100.0 mg/kg/injection, schedule: Q04DX003 (ip), vehicle: Klucel (hydroxypropylcellulose) (HPC)
[16] = dose: 200.0 mg/kg/injection, schedule: Q04DX003 (ip), vehicle: Klucel (hydroxypropylcellulose) (HPC)
[17] = dose: 50.0 mg/kg/injection, schedule: Q01DX009 (ip), vehicle: saline
[18] = dose: 100.0 mg/kg/injection, schedule: Q01DX009 (ip), vehicle: saline
[19] = dose: 200.0 mg/kg/injection, schedule: Q01DX009 (ip), vehicle: saline
[20] = dose: 100.0 mg/kg/injection, schedule: Q04DX003 (ip), vehicle: saline
[21] = dose: 200.0 mg/kg/injection, schedule: Q04DX003 (ip), vehicle: saline

Measured: T/C

CC(=O)Nc1cccc2c(C)ccnc12
inactive: [1] 99 % of control | dose: 12.5 mg/kg/injection, schedule: Q04DX003 (ip), vehicle: Klucel (hydroxypropylcellulose) (HPC) 94 % of control | [2] 97 % of control | [3] 98 % of control | [4] 87 % of control | [5] 95 % of control

O=Cc1ccc(N(c2ccc(C=O)cc2)c2ccc(C=O)cc2)cc1
inactive: [6] 100 % of control | [7] 89 % of control | [8] 92 % of control

CC(=O)c1ccccc1OC(=S)N(C)C
inactive: [6] 87 % of control | [7] 95 % of control

Cc1ccc(O)cn1
inactive: [6] 100 % of control | [7] 96 % of control | [8] 103 % of control

O=C(COc1ccc(Cl)cc1Cl)NNc1ccc([N+](=O)[O-])cc1
inactive: dose: 100.0 mg/kg/injection, schedule: Q04DX002 (ip), vehicle: saline 100 % of control | dose: 200.0 mg/kg/injection, schedule: Q04DX002 (ip), vehicle: saline 92 % of control | dose: 400.0 mg/kg/injection, schedule: Q04DX002 (ip), vehicle: saline 88 % of control

Cc1cccc(Cl)c1NC(=S)Nc1cccc(C(F)(F)F)c1
inactive: [9] 102 % of control | [10] 102 % of control | [11] 96 % of control

C[C@H]1[C@H](O)[C@H]2[C@@H](CCC3=CC(=O)CC[C@@]32C)[C@@H]2CC[C@H](O)[C@@]12C
inactive: dose: 50.0 mg/kg/injection, schedule: Q01DX001 (sc), vehicle: steriod suspending solution 102 % of control | dose: 100.0 mg/kg/injection, schedule: Q01DX001 (sc), vehicle: steriod suspending solution 102 % of control | dose: 200.0 mg/kg/injection, schedule: Q01DX001 (sc), vehicle: steriod suspending solution 102 % of control | dose: 400.0 mg/kg/injection, schedule: Q01DX001 (sc), vehicle: steriod suspending solution 96 % of control

CCCCCCCCP(=S)(CCCCCC)CCCCCC
inactive: dose: 100.0 mg/kg/injection, schedule: Q01DX001 (ip), vehicle: saline with Tween-80 104 % of control | dose: 200.0 mg/kg/injection, schedule: Q01DX001 (ip), vehicle: saline with Tween-80 90 % of control | dose: 400.0 mg/kg/injection, schedule: Q01DX001 (ip), vehicle: saline with Tween-80 87 % of control

CCN=C(c1ccc(NC(=O)c2ccc(C(=O)Nc3ccc(C(=NCC)N(CC)C(=O)NC(C)C)cc3)cc2)cc1)N(CC)C(=O)NC(C)C
inactive: dose: 6.0 mg/kg/injection, schedule: Q01DX015 (ip), vehicle: methylcellulose (MC) 89 % of control | dose: 25.0 mg/kg/injection, schedule: Q01DX015 (ip), vehicle: methylcellulose (MC) 102 % of control | dose: 37.0 mg/kg/injection, schedule: Q01DX015 (ip), vehicle: methylcellulose (MC) 96 % of control

CNC(=O)Oc1ccc(C(=O)OCCO)cc1
inactive: [12] 90 % of control | [13] 88 % of control | [14] 88 % of control

C/C(=C\c1ccc2c(c1)OCO2)[N+](=O)[O-]
inactive: [2] 97 % of control | [4] 89 % of control | dose: 50.0 mg/kg/injection, schedule: Q01DX009 (ip), vehicle: saline with Tween-80 108 % of control | [5] 94 % of control | [9] 98 % of control and 87 % of control | dose: 100.0 mg/kg/injection, schedule: Q01DX009 (ip), vehicle: saline with Tween-80 87 % of control | [15] 103 % of control | [16] 100 % of control | dose: 400.0 mg/kg/injection, schedule: Q04DX003 (ip), vehicle: Klucel (hydroxypropylcellulose) (HPC) 97 % of control

Clc1ccc([O][Sn]([c]2ccccc2)([c]2ccccc2)[c]2ccccc2)c(-c2ccccc2)c1
inactive: dose: 5.0 mg/kg/injection, schedule: Q01DX001 (ip), vehicle: saline 90 % of control | dose: 10.0 mg/kg/injection, schedule: Q01DX001 (ip), vehicle: saline 96 % of control

CC(C)(O)C(C)(O)c1cccc(Cl)c1 (stereo not given)
inactive: [1] 100 % of control | [2] 109 % of control | [3] 91 % of control | [4] 100 % of control | [5] 93 % of control | [9] 100 % of control | [15] 96 % of control | [10] 98 % of control | [16] 90 % of control

CCC1OC(C)CC(C)(C)O1 (stereo not given)
inactive: [17] 96 % of control | [18] 101 % of control | dose: 100.0 mg/kg/injection, schedule: Q04DX002 (ip), vehicle: saline with Tween-80 93 % of control | dose: 100.0 mg/kg/injection, schedule: Q04DX003 (ip), vehicle: acetone 118 % of control | [19] 96 % of control | dose: 200.0 mg/kg/injection, schedule: Q04DX002 (ip), vehicle: saline with Tween-80 97 % of control | dose: 200.0 mg/kg/injection, schedule: Q04DX003 (ip), vehicle: acetone 120 % of control | dose: 400.0 mg/kg/injection, schedule: Q04DX002 (ip), vehicle: saline with Tween-80 101 % of control | dose: 400.0 mg/kg/injection, schedule: Q04DX003 (ip), vehicle: acetone 101 % of control

Cc1nc2cnn(C)c2nc1C
inactive: [17] 101 % of control | [18] 97 % of control | [20] 106 % of control | [19] 88 % of control | [21] 100 % of control

c1ccc2c(c1)C(=NN=C1c3ccccc3-c3ccccc31)c1ccccc1-2
inactive: dose: 100.0 mg/kg/injection, schedule: Q01DX001 (ip), vehicle: carboxymethylcellulose (CMC) 97 % of control | [9] 93 % of control | dose: 200.0 mg/kg/injection, schedule: Q01DX001 (ip), vehicle: carboxymethylcellulose (CMC) 94 % of control | [10] 104 % of control | dose: 400.0 mg/kg/injection, schedule: Q01DX001 (ip), vehicle: carboxymethylcellulose (CMC) 94 % of control | [11] 96 % of control

O=[N+]([O-])c1cc(C(F)(F)C(F)(F)C(F)(F)c2ccc(O)c([N+](=O)[O-])c2)ccc1O
inactive: dose: 25.6 mg/kg/injection, schedule: Q04DX002 (ip), vehicle: saline with Tween-80 95 % of control | dose: 64.0 mg/kg/injection, schedule: Q04DX002 (ip), vehicle: saline with Tween-80 100 % of control | dose: 160.0 mg/kg/injection, schedule: Q04DX002 (ip), vehicle: saline with Tween-80 92 % of control

Cn1[nH]c(=S)c(=O)[nH]c1=O
inactive: [12] 111 % of control | [13] 106 % of control | [14] 101 % of control

COc1ccc(/C=C(\CC(=O)c2ccccc2)C(=O)Nc2ccccc2)cc1
inactive: [12] 93 % of control | [20] 109 % of control | [13] 96 % of control | [21] 98 % of control | [14] 103 % of control | dose: 400.0 mg/kg/injection, schedule: Q04DX003 (ip), vehicle: saline 95 % of control
